The values that follow are results of earlier work, collected in patent US20040214804A1, “Combination of an aldosterone receptor antagonist and an anti-obesity agent” (Pharmacia Corporation, priority 2003, published 2004).

The test system of data set [1] is severe heart failure patients. The note with it: left ventricular ejection fraction no more than 35%, on standard therapy (ACE inhibitor, loop diuretic, in some cases digoxin).
The test system of data set [2] is dietary-induced obesity in dogs. The note with it: during development of dietary-induced obesity.

`CC(=O)S[C@@H]1CC2=CC(=O)CCC2(C)C2CC[C@]3(C)[C@@H](CC[C@@]34CCC(=O)O4)C21` (stereo partly drawn) [spironolactone, 17-hydroxy-7α-mercapto-3-oxo-17α-pregn-4-ene-21-carboxylic acid γ-lactone acetate]: in data set [1], the “incidence of hospitalization relative to placebo-treated subjects” value is on record as “statistically significant reduction” and the “mortality relative to placebo-treated subjects” value is listed as “statistically significant reduction”.
On to `COC(=O)[C@@H]1CC2=CC(=O)CC[C@]2(C)[C@@]23O[C@@H]2C[C@@]2(C)[C@@H](CC[C@@]24CCC(=O)O4)[C@H]13` [Eplerenone, Pregn-4-ene-7,21-dicarboxylic acid, 9,11-epoxy-17-hydroxy-3-oxo-,γ-lactone, methyl ester, (7α,11α,17β)-], for which, in data set [2], the “glomerular hyperfiltration associated with chronic dietary-induced obesity” value is listed as “markedly attenuated”, the “hypertension associated with chronic dietary-induced obesity” value is reported as “markedly attenuated” and the “sodium retention associated with chronic dietary-induced obesity” value was “markedly attenuated”.
